{"source": "ChEMBL document CHEMBL5727068", "about": "“Inhibitors of PTP4A3 for the treatment of cancer” (2019)", "target": "Protein tyrosine phosphatase type IVA 3 (Homo sapiens, UniProt O75365)", "sequence (O75365 whole entry, the tested form may be a part)": "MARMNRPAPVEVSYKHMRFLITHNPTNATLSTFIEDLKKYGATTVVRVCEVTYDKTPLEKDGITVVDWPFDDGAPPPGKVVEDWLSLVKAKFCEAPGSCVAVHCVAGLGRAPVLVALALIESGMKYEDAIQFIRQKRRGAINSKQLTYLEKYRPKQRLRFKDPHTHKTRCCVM", "assay": "In Vitro Biochemical Evaluation: The in vitro biochemical evaluation of all compounds was carried out using recombinant human PTP4A3, overexpressed as a His6-tag fusion protein in E. coli and purified on a metal affinity column. Assays were performed using 6,8-difluoro-4-methylumbelliferyl phosphate (DiFMUP) as an artificial substrate at 25° C. for 30 min in 40 mM Tris-HCl (pH 7.0), 75 mM NaCl, 2 mM EDTA, and 4 mM DTT buffer. […] The fluorescence was measured using a SpectraMax M5 plate reader at 358 nm excitation and 455 nm emission. Fluorescence values were used to calculate the percent inhibition of enzyme activity relative to maximal activity, PTP4A3 in the absence of inhibitor, and maximal inhibition, PTP4A3 in the presence of 2 mM Na3VO4."}
{"smiles": "O=c1[nH]c(=O)c2cc(-c3ccccc3)sc2[nH]1", "values": [{"measurement": "IC50", "result": "> 250", "unit": "µM"}]}
